According to publication PMC11206203, “Peptide macrocyclisation via intramolecular interception of visible-light-mediated desulfurisation” (Chemical Science, 2024):

Columns and labels:
[1] = Same desulfurative C-C cyclisation as series A (TCEP, Ir photocatalyst, blue light) with N-terminal Cys and C-terminal allylglycine (reversed pentapeptides); details: the molecule shown is the open-chain precursor; 17-membered ring; 6 M Gdn.HCl, 0.1 M Na2HPO4 pH 7.5-8.0 / MeCN 9:1; 0.5 mM; 25.0 °C
[2] = C(sp3)-C(sp3) bond formation by visible-light-mediated Cys desulfurisation: alanyl radical adds to terminal alkene of allylglycine (or O-allyl Ser, pentenylGly, acrylamide); TCEP 50 eq (25 mM), (Ir[dF(CF3)ppy]2(dtbpy))PF6 1 mol%, 450 nm blue LED; unprotected peptides; details: 6 M Gdn.HCl, 0.1 M Na2HPO4 pH 7.5-8.0 / MeCN 9:1, 0.5 mM, 25.0 °C

With `C=CC[C@H](NC(=O)[C@H](CCC(=O)O)NC(=O)[C@H](Cc1ccccc1)NC(=O)[C@H](C)NC(=O)[C@H](CS)NC(C)=O)C(N)=O` [Ac-Cys-Ala-Phe-Glu-(allylGly)-NH2] as the compound, how does the ring closure, conversion by HPLC [1] read?
Its ring closure, conversion by HPLC is 0%.

For `C=CC[C@H](NC(=O)[C@H](CCCNC(=N)N)NC(=O)[C@H](Cc1c[nH]c2ccccc12)NC(=O)[C@@H](NC(=O)[C@H](CS)NC(C)=O)[C@@H](C)CC)C(N)=O` [Ac-Cys-Ile-Trp-Arg-(allylGly)-NH2], which ring closure, conversion by HPLC [1] is on record?
Its ring closure, conversion by HPLC is 7%.

For `C=CC[C@H](NC(=O)[C@H](CCSC)NC(=O)[C@H](Cc1ccc(O)cc1)NC(=O)[C@H](CC(C)C)NC(=O)[C@H](CS)NC(C)=O)C(N)=O` [Ac-Cys-Leu-Tyr-Met-(allylGly)-NH2], which ring closure, conversion by HPLC [1] is on record?
Its ring closure, conversion by HPLC is 21%.

Which ring closure, conversion by HPLC [1] does the source give for `C=CC[C@H](NC(=O)[C@H](CCCCN)NC(=O)[C@@H]1CCCN1C(=O)[C@@H](NC(=O)[C@H](CS)NC(C)=O)[C@@H](C)O)C(N)=O` [Ac-Cys-Thr-Pro-Lys-(allylGly)-NH2] here?
Its ring closure, conversion by HPLC is 0%.

For `C=CC[C@H](NC(=O)[C@H](CCC(N)=O)NC(=O)[C@H](Cc1c[nH]cn1)NC(=O)[C@@H](NC(=O)[C@H](CS)NC(C)=O)C(C)C)C(N)=O` [Ac-Cys-Val-His-Gln-(allylGly)-NH2], which ring closure, conversion by HPLC [1] is on record?
The ring closure, conversion by HPLC was 28%.

For `C[C@@H]1NC(=O)[C@H](Cc2ccccc2)NC(=O)[C@H](C)NC(=O)[C@@H](N)CCCC[C@@H](C(N)=O)NC1=O` [H-(allylGly)-Ala-Phe-Ala-Cys-NH2], which ring closure, isolated yield ([2]; from C=CC[C@H](N)C(=O)N[C@@H](C)C(=O)N[C@@H](Cc1ccccc1)C(=O)N[C@@H](C)C(=O)N[C@@H](CS)C(N)=O, 17-membered ring, 0.75 h) is on record?
Its ring closure, isolated yield is 79%.

For `CSCC[C@@H]1NC(=O)[C@@H]2CCCN2C(=O)[C@H](CCCNC(=N)N)NC(=O)[C@@H](N)CCCC[C@@H](C(N)=O)NC(=O)[C@H](Cc2c[nH]cn2)NC1=O` [H-(allylGly)-Arg-Pro-Met-His-Cys-NH2], which ring closure, isolated yield ([2]; from C=CC[C@H](N)C(=O)N[C@@H](CCCNC(=N)N)C(=O)N1CCC[C@H]1C(=O)N[C@@H](CCSC)C(=O)N[C@@H](Cc1c[nH]cn1)C(=O)N[C@@H](CS)C(N)=O, 20-membered ring) is on record?
Its ring closure, isolated yield is 0%.

For `NCCCC[C@@H]1NC(=O)[C@H](CC(=O)O)NC(=O)[C@@H](N)CCCC[C@@H](C(N)=O)NC(=O)[C@H](CCC(=O)O)NC(=O)[C@H](Cc2c[nH]cn2)NC(=O)[C@H](CC(N)=O)NC(=O)[C@H](Cc2ccccc2)NC1=O` [H-(allylGly)-Asp-Lys-Phe-Asn-His-Glu-Cys-NH2], which ring closure, isolated yield ([2]; from C=CC[C@H](N)C(=O)N[C@@H](CC(=O)O)C(=O)N[C@@H](CCCCN)C(=O)N[C@@H](Cc1ccccc1)C(=O)N[C@@H](CC(N)=O)C(=O)N[C@@H](Cc1c[nH]cn1)C(=O)N[C@@H](CCC(=O)O)C(=O)N[C@@H](CS)C(N)=O, 26-membered ring) is on record?
The ring closure, isolated yield was 70%.

Which ring closure, isolated yield ([2]; from C=CC[C@H](N)C(=O)N[C@@H](CCC(=O)O)C(=O)N[C@@H](CC(=O)O)C(=O)N[C@@H](CC(C)C)C(=O)N[C@@H](Cc1ccccc1)C(=O)N[C@@H](Cc1ccc(O)cc1)C(=O)N[C@@H](CCC(N)=O)C(=O)N[C@@H](CS)C(N)=O, 26-membered ring) does the source give for `CC(C)C[C@@H]1NC(=O)[C@H](CC(=O)O)NC(=O)[C@H](CCC(=O)O)NC(=O)[C@@H](N)CCCC[C@@H](C(N)=O)NC(=O)[C@H](CCC(N)=O)NC(=O)[C@H](Cc2ccc(O)cc2)NC(=O)[C@H](Cc2ccccc2)NC1=O` [H-(allylGly)-Glu-Asp-Leu-Phe-Tyr-Gln-Cys-NH2] here?
Its ring closure, isolated yield is 65%.

Which ring closure, isolated yield ([2]; from C=CC[C@H](N)C(=O)N[C@@H](CC(C)C)C(=O)N[C@@H](Cc1ccc(O)cc1)C(=O)N[C@@H](CCSC)C(=O)N[C@@H](CS)C(N)=O, 17-membered ring) does the source give for `CSCC[C@@H]1NC(=O)[C@H](Cc2ccc(O)cc2)NC(=O)[C@H](CC(C)C)NC(=O)[C@@H](N)CCCC[C@@H](C(N)=O)NC1=O` [H-(allylGly)-Leu-Tyr-Met-Cys-NH2] here?
Its ring closure, isolated yield is 54%.

Which ring closure, isolated yield ([2]; from C=CC[C@H](N)C(=O)N[C@@H](CCSC)C(=O)N[C@@H](C)C(=O)N[C@@H](CC(C)C)C(=O)N[C@@H](CCC(=O)O)C(=O)N[C@@H](CCCCN)C(=O)N[C@@H](CS)C(N)=O, 23-membered ring) does the source give for `CSCC[C@@H]1NC(=O)[C@@H](N)CCCC[C@@H](C(N)=O)NC(=O)[C@H](CCCCN)NC(=O)[C@H](CCC(=O)O)NC(=O)[C@H](CC(C)C)NC(=O)[C@H](C)NC1=O` [H-(allylGly)-Met-Ala-Leu-Glu-Lys-Cys-NH2] here?
Its ring closure, isolated yield is 44%.

With `CSCC[C@@H]1NC(=O)[C@@H](N)CCCC[C@@H](C(N)=O)NC(=O)[C@H](CCCNC(=N)N)NC(=O)[C@H](CC(C)C)NC(=O)[C@H](Cc2c[nH]c3ccccc23)NC(=O)[C@@H]2CCCN2C1=O` [H-(allylGly)-Met-Pro-Trp-Leu-Arg-Cys-NH2] as the compound, how does the ring closure, isolated yield ([2]; from C=CC[C@H](N)C(=O)N[C@@H](CCSC)C(=O)N1CCC[C@H]1C(=O)N[C@@H](Cc1c[nH]c2ccccc12)C(=O)N[C@@H](CC(C)C)C(=O)N[C@@H](CCCNC(=N)N)C(=O)N[C@@H](CS)C(N)=O, 23-membered ring) read?
Its ring closure, isolated yield is 65%.

Which ring closure, isolated yield ([2]; from C=CC[C@H](N)C(=O)N[C@@H](Cc1ccc(O)cc1)C(=O)N[C@H](C(=O)N[C@@H](CCC(N)=O)C(=O)N[C@@H](CC(N)=O)C(=O)N[C@@H](CS)C(=O)N1CCC[C@H]1C(=O)N[C@@H](CC(C)C)C(=O)NCC(N)=O)[C@@H](C)CC, 20-membered ring) does the source give for `CC[C@H](C)[C@@H]1NC(=O)[C@H](Cc2ccc(O)cc2)NC(=O)[C@@H](N)CCCC[C@@H](C(=O)N2CCC[C@H]2C(=O)N[C@@H](CC(C)C)C(=O)NCC(N)=O)NC(=O)[C@H](CC(N)=O)NC(=O)[C@H](CCC(N)=O)NC1=O` [H-(allylGly)-Tyr-Ile-Gln-Asn-Cys-Pro-Leu-Gly-NH2] here?
The ring closure, isolated yield was 0%.

For `NC(=O)CC[C@@H]1NC(=O)[C@H](Cc2ccc(O)cc2)NC(=O)[C@H](Cc2ccccc2)NC(=O)[C@@H](NC(=O)[C@@H](N)CC(=O)O)CCCC[C@@H](C(N)=O)NC1=O` [H-Asp-(allylGly)-Phe-Tyr-Gln-Cys-NH2], which ring closure, isolated yield ([2]; from C=CC[C@H](NC(=O)[C@@H](N)CC(=O)O)C(=O)N[C@@H](Cc1ccccc1)C(=O)N[C@@H](Cc1ccc(O)cc1)C(=O)N[C@@H](CCC(N)=O)C(=O)N[C@@H](CS)C(N)=O, 17-membered ring) is on record?
Its ring closure, isolated yield is 82%.

With `C=CC[C@H](NC(=O)[C@H](CCC(=O)O)NC(=O)[C@H](Cc1ccccc1)NC(=O)[C@H](C)NC(=O)[C@@H](N)CS)C(N)=O` [H-Cys-Ala-Phe-Glu-(allylGly)-NH2] as the compound, how does the ring closure, conversion by HPLC [1] read?
Its ring closure, conversion by HPLC is 25%.

Which ring closure, conversion by HPLC [1] does the source give for `C=CC[C@H](NC(=O)[C@H](CCCNC(=N)N)NC(=O)[C@H](Cc1c[nH]c2ccccc12)NC(=O)[C@@H](NC(=O)[C@@H](N)CS)[C@@H](C)CC)C(N)=O` [H-Cys-Ile-Trp-Arg-(allylGly)-NH2] here?
Its ring closure, conversion by HPLC is 0%.

Which ring closure, conversion by HPLC [1] does the source give for `C=CC[C@H](NC(=O)[C@H](CCSC)NC(=O)[C@H](Cc1ccc(O)cc1)NC(=O)[C@H](CC(C)C)NC(=O)[C@@H](N)CS)C(N)=O` [H-Cys-Leu-Tyr-Met-(allylGly)-NH2] here?
The ring closure, conversion by HPLC was 0%.

Which ring closure, conversion by HPLC [1] does the source give for `C=CC[C@H](NC(=O)[C@H](CCCCN)NC(=O)[C@@H]1CCCN1C(=O)[C@@H](NC(=O)[C@@H](N)CS)[C@@H](C)O)C(N)=O` [H-Cys-Thr-Pro-Lys-(allylGly)-NH2] here?
Its ring closure, conversion by HPLC is 0%.

For `CC[C@H](C)[C@@H]1NC(=O)[C@H](Cc2ccc(O)cc2)NC(=O)[C@@H](N)CCCC[C@@H](C(=O)N2CCC[C@H]2C(=O)N[C@@H](CC(C)C)C(=O)NCC(N)=O)NC(=O)[C@H](CC(N)=O)NC(=O)[C@H](CCC(N)=O)NC1=O` [H-Cys-Tyr-Ile-Gln-Asn-(allylGly)-Pro-Leu-Gly-NH2], which ring closure, isolated yield ([2]; from C=CC[C@H](NC(=O)[C@H](CC(N)=O)NC(=O)[C@H](CCC(N)=O)NC(=O)[C@@H](NC(=O)[C@H](Cc1ccc(O)cc1)NC(=O)[C@@H](N)CS)[C@@H](C)CC)C(=O)N1CCC[C@H]1C(=O)N[C@@H](CC(C)C)C(=O)NCC(N)=O, 20-membered ring) is on record?
The ring closure, isolated yield was 52%.

Which ring closure, conversion by HPLC [1] does the source give for `C=CC[C@H](NC(=O)[C@H](CCC(N)=O)NC(=O)[C@H](Cc1c[nH]cn1)NC(=O)[C@@H](NC(=O)[C@@H](N)CS)C(C)C)C(N)=O` [H-Cys-Val-His-Gln-(allylGly)-NH2] here?
Its ring closure, conversion by HPLC is 0%.

Which ring closure, isolated yield ([2]; from C=C(C)COC[C@H](N)C(=O)N[C@@H](C)C(=O)N[C@@H](Cc1ccccc1)C(=O)N[C@@H](C)C(=O)N[C@@H](CS)C(N)=O, 19-membered ring, 0.17 h) does the source give for `CC1CC[C@@H](C(N)=O)NC(=O)[C@H](C)NC(=O)[C@H](Cc2ccccc2)NC(=O)[C@H](C)NC(=O)[C@@H](N)COC1` (stereo partly drawn) [H-Ser(O-2-methylallyl)-Ala-Phe-Ala-Cys-NH2] here?
Its ring closure, isolated yield is 77%.

Which ring closure, isolated yield ([2]; from C=CCOC[C@H](N)C(=O)N[C@@H](C)C(=O)N[C@@H](Cc1ccccc1)C(=O)N[C@@H](C)C(=O)N[C@@H](CS)C(N)=O, 19-membered ring, 1.0 h) does the source give for `C[C@@H]1NC(=O)[C@H](Cc2ccccc2)NC(=O)[C@H](C)NC(=O)[C@@H](N)COCCCC[C@@H](C(N)=O)NC1=O` [H-Ser(OAllyl)-Ala-Phe-Ala-Cys-NH2] here?
The ring closure, isolated yield was 78%.
